These results are taken from patent EP4813381A1, “PHARMACEUTICAL USE OF GUAIANE SESQUITERPENE DERIVATIVE” (Nanjing University Of Chinese Medicine, priority 2023, dated 2025).

One data set relates to MDSCs and T cells. Nature of the data set: T cell proliferation in a co-culture model of MDSCs and T cells (flow cytometry). In kind it is cell-based, mice. Conditions: MDSCs treated with 1 µM compound for 12 h, 48 h co-culture with T cells (1:1), compared to the control group. The method, then:
Under sterile conditions, the tibia was removed, both ends of the bone were cut, and bone marrow was repeatedly flushed into a 15 mL centrifuge tube using a 1 mL syringe filled with culture medium. Centrifuge at 1600 rpm for 5 min to collect bone marrow cells. […] The spleen cell suspension was then transferred into a 15 mL centrifuge tube. Centrifuge at 1600 rpm for 5 min to collect T cells. Wash twice with 1×PBS. Resuspend the centrifuged T cells in 1 mL PBS and add 1 mL of 10 µM CFDA-SE solution. Incubate at room temperature for 8 min. […] After drug administration, collect MDSC cells into centrifuge tubes. Centrifuge at 1600 rpm for 5 min, remove supernatant, resuspend in 1 mL fresh medium, and plate. Add 1 mL stimulated activated T cells (1:1 ratio) for 48 h co-culture. After incubation, collect cells into centrifuge tubes, wash twice with PBS, and incubate with Fc antibody at room temperature in the dark for 10 min. Add CD3-labeled flow cytometry antibody and incubate at 4 °C in the dark for 30 min. After incubation, wash cells with PBS, resuspend in 300 µL PBS, and analyze by flow cytometry.

A short description of data set [1]: Conversion rate of salt-form prodrugs to parent compound in HEPES buffer solution. In kind it is physicochemical. The method, then:
Adjust the pH to 7.4 using 0.5 M NaOH, then dilute to a final volume 100 mL with distilled water.
(§1) Sample Analysis: Dissolve 0.6 mg of the compound in 250 µl of deionized water separately. Add 250 µl of mouse serum or HEPES 7.4 solution to the sample, incubate at a constant temperature of 37 °C, and collect samples at different time points. Pipette 20 µl of the sample to an EP tube, add 60 µl of methanol, vortex to mix thoroughly, and centrifuge at 12,000 rpm at 4 °C for 10 min. At 1 h, 2 h, 4 h, 8 h, and 12 h respectively, collect the supernatant for HPLC analysis. Inject 10 µL of sample and record the corresponding peak areas.

A short description of data set [2]: Conversion rate of salt-form prodrugs to parent compound in mouse plasma. The format is in vitro ADME. The note with it: 37 °C. On the procedure: Pharmaceutically acceptable salts of guaiane-type sesquiterpene lactone derivatives were selected and evaluated for their conversion rates to Compound 1 and Compound 83 in plasma and HEPES buffer, with results shown in Tables 2-1, 2-2, 3-1, and 3-2.
Plasma Preparation: Collect mouse plasma into an EP tube pre-loaded with sodium heparin, centrifuge at 8000 rpm for 10 minutes at 4°C, and then collect the supernatant.
as §1, with “areas. Chromatographic conditions: Hanbang C18 column (4.6 × 250 mm, 5 µm); mobile phase: acetonitrile: […] ammonium formate solution = 60:40; flow rate 1.0 mL/min; detection wavelength 210 nm; column temperature 30 °C. [drawing 171] Table 2-1. Conversion Rate of Compounds 20-42 to Compound 1 at Different Time Points in HEPES Buffer Solution” for “areas.”

[3] abbreviates: conversion to Compound 1, HEPES buffer pH 7.4, 37 °C, 1 h.
Setting [4] is: conversion to Compound 1, HEPES buffer pH 7.4, 37 °C, 2 h.
Setting [5] is: conversion to Compound 1, HEPES buffer pH 7.4, 37 °C, 4 h.
Where [6] appears, read: conversion to Compound 1, HEPES buffer pH 7.4, 37 °C, 8 h.
Where [7] appears, read: conversion to Compound 1, HEPES buffer pH 7.4, 37 °C, 12 h.
The mark [8] stands for this setting: conversion to Compound 1, mouse plasma, 1 h.
The mark [9] stands for this setting: conversion to Compound 1, mouse plasma, 2 h.
[10] abbreviates: conversion to Compound 1, mouse plasma, 4 h.
Setting [11] is: conversion to Compound 1, mouse plasma, 8 h.
Setting [12] is: conversion to Compound 1, mouse plasma, 12 h.
[13] abbreviates: conversion to Compound 83, HEPES buffer pH 7.4, 37 °C, 1 h.
The mark [14] stands for this setting: conversion to Compound 83, HEPES buffer pH 7.4, 37 °C, 2 h.
The mark [15] stands for this setting: conversion to Compound 83, HEPES buffer pH 7.4, 37 °C, 4 h.
[16] abbreviates: conversion to Compound 83, HEPES buffer pH 7.4, 37 °C, 8 h.
The mark [17] stands for this setting: conversion to Compound 83, HEPES buffer pH 7.4, 37 °C, 12 h.
[18] abbreviates: conversion to Compound 83, mouse plasma, 1 h.
[19] abbreviates: conversion to Compound 83, mouse plasma, 2 h.
Where [20] appears, read: conversion to Compound 83, mouse plasma, 4 h.
The mark [21] stands for this setting: conversion to Compound 83, mouse plasma, 8 h.
The mark [22] stands for this setting: conversion to Compound 83, mouse plasma, 12 h.

For the compound `C=C1C(=O)O[C@H]2[C@H]1CCC(C)=C1CC[C@@](C)(OC(=O)NCCOCCO)[C@@H]12` [compound 76], the “T-cell proliferation rate (%)” value in the data set with MDSCs and T cells was “++ (T-cell proliferation rate within the 20-40% range compared to the control group)”.
Take `C=C1C(=O)O[C@H]2[C@H]1CCC(C)=C1CC[C@@](C)(OC(=O)NCCN(C)C)[C@@H]12` [compound 77]: the “T-cell proliferation rate (%)” value in the data set with MDSCs and T cells is on record as “+ (T-cell proliferation rate within the 0-20% range compared to the control group)”.
Turning to `C=C1C(=O)O[C@H]2[C@H]1CCC(C)=C1CC[C@@](C)(OC(=O)NC(C)C)[C@@H]12` [compound 68], the “T-cell proliferation rate (%)” value with MDSCs and T cells is recorded as “+ (T-cell proliferation rate within the 0-20% range compared to the control group)”.
As to `C=C1C(=O)O[C@H]2[C@H]1CCC(C)=C1CC[C@@](C)(OC(=O)N(CC)CC)[C@@H]12` [compound 81], in the data set with MDSCs and T cells, the “T-cell proliferation rate (%)” value was “++ (T-cell proliferation rate within the 20-40% range compared to the control group)”.
The same measure, in the same setting: next, `C=C1C(=O)O[C@H]2[C@H]1CCC(C)=C1CC[C@@](C)(OC(=O)N3CCC(N4CCOCC4)CC3)[C@@H]12` [compound 94]: “++ (T-cell proliferation rate within the 20-40% range compared to the control group)”.
Turning to `C=C1C(=O)O[C@H]2[C@H]1CCC(C)=C1CC[C@@](C)(OC(=O)N3CCCC3)[C@@H]12` [compound 82], the “T-cell proliferation rate (%)” value with MDSCs and T cells is reported as “+ (T-cell proliferation rate within the 0-20% range compared to the control group)”.
Still for that read-out and setting: then `CCC(=O)O[C@]1(C)CC[C@@]23C[C@]2(C)CC[C@@H]2[C@H](CC(=O)[C@H]2CN(C)C)[C@H]31` [compound 63], with “+ (T-cell proliferation rate within the 0-20% range compared to the control group)”; and `C=C1C(=O)O[C@H]2[C@H]1CCC(C)=C1CC[C@@](C)(OC(=O)NCCCO)[C@@H]12` [compound 72], with “++ (T-cell proliferation rate within the 20-40% range compared to the control group)”.
For `C=C1C(=O)O[C@H]2[C@H]1CCC(C)=C1CC[C@@](C)(OC(=O)N3CCOCC3)[C@@H]12` [compound 87], the “T-cell proliferation rate (%)” value in the data set with MDSCs and T cells was “+++ (T-cell proliferation rate >40% compared to the control group)”.
As to `C[C@@]12CC[C@@H]3[C@H](OC(=O)[C@H]3CN3CCC(N4CCCCC4)CC3)[C@@H]3[C@]1(CC[C@@]3(C)O)C2` [compound 35], the Release rate in data set [1] (setting [3]) is 6.8%; in data set [1] (setting [4]), 14.6%; in data set [1] (setting [5]) it was 26.4%; in data set [1] (setting [6]), 43.8%; in data set [1] (setting [7]), 52.5%; in data set [2] (setting [8]), 6.8%. Moreover, the Release rate is recorded as 13.6% in data set [2] (setting [9]), 26.4% in data set [2] (setting [10]), 44.8% in data set [2] (setting [11]) and 52.5% in data set [2] (setting [12]).
`CC1=C2CC[C@@](C)(OC(=O)N3CCCCC3)[C@@H]2[C@H]2OC(=O)[C@@H](CN3CCCC3)[C@@H]2CC1` [compound 101]: the Release rate in data set [1] (setting [13]) came to 7.0%; in data set [1] (setting [14]), 16.0%; in data set [1] (setting [15]), 28.2%; in data set [1] (setting [16]), 46.4%; in data set [1] (setting [17]) it was 53.6%; in data set [2] (setting [18]), 7.6%. Further, the Release rate is 16.6% in data set [2] (setting [19]), 27.4% in data set [2] (setting [20]), 46.0% in data set [2] (setting [21]) and 54.2% in data set [2] (setting [22]).
As to `CC(C)N(C[C@@H]1C(=O)O[C@H]2[C@H]1CC[C@@]1(C)C[C@]13CC[C@@](C)(O)[C@H]23)C(C)C` [compound 31], the Release rate is 6.7% in data set [1] (setting [3]); 14.0% in data set [1] (setting [4]); 23.0% in data set [1] (setting [5]); 41.2% in data set [1] (setting [6]); 49.5% in data set [1] (setting [7]); 6.5% in data set [2] (setting [8]). The Release rate was determined as 13.9% in data set [2] (setting [9]), 24.4% in data set [2] (setting [10]), 40.2% in data set [2] (setting [11]) and 48.5% in data set [2] (setting [12]).
Consider `CC1=C2CC[C@@](C)(OC(=O)N3CCCCC3)[C@@H]2[C@H]2OC(=O)[C@@H](CN3CCCC3)[C@@H]2CC1` [compound 100], for which the Release rate in data set [1] (setting [13]) came out at 6.5%; in data set [1] (setting [14]), 14.0%; in data set [1] (setting [15]), 26.4%; in data set [1] (setting [16]), 45.2%; in data set [1] (setting [17]) it was 51.4%; in data set [2] (setting [18]), 6.6%. In addition, the Release rate was 13.8% in data set [2] (setting [19]), 25.6% in data set [2] (setting [20]), 43.2% in data set [2] (setting [21]) and 53.0% in data set [2] (setting [22]).
Take `C[C@@]12CC[C@@H]3[C@H](OC(=O)[C@H]3CN3CCCCCCC3)[C@@H]3[C@]1(CC[C@@]3(C)O)C2` [compound 38]: the Release rate in data set [1] (setting [3]) is 6.9%; in data set [1] (setting [4]), 14.8%; in data set [1] (setting [5]) it was 25.4%; in data set [1] (setting [6]) it was 41.4%; in data set [1] (setting [7]) it was 50.7%; in data set [2] (setting [8]), 6.1%. Further, the Release rate was found to be 14.5% in data set [2] (setting [9]), 25.4% in data set [2] (setting [10]), 41.4% in data set [2] (setting [11]) and 49.7% in data set [2] (setting [12]).
Take `C[C@@]12CC[C@@H]3[C@H](OC(=O)[C@H]3CN3CCCCC3)[C@@H]3[C@]1(CC[C@@]3(C)O)C2` [compound 24]: the Release rate in data set [1] (setting [3]) is recorded as 6.8%; in data set [1] (setting [4]), 15.1%; in data set [1] (setting [5]) it was 26.7%; in data set [1] (setting [6]) it was 42.8%; in data set [1] (setting [7]), 54.0%; in data set [2] (setting [8]) it was 7.7%. The Release rate came out at 17.1% in data set [2] (setting [9]), 27.7% in data set [2] (setting [10]), 47.8% in data set [2] (setting [11]) and 57.9% in data set [2] (setting [12]).
Take `C[C@@]12CC[C@@H]3[C@H](OC(=O)[C@H]3CN3CC4CCCC4C3)[C@@H]3[C@]1(CC[C@@]3(C)O)C2` (some centres unmarked) [compound 32]: the Release rate turned out to be 6.9% in data set [1] (setting [3]); 15.4% in data set [1] (setting [4]); 26.2% in data set [1] (setting [5]); 42.2% in data set [1] (setting [6]); 51.2% in data set [1] (setting [7]); 6.3% in data set [2] (setting [8]). Further, the Release rate in data set [2] (setting [9]) was 14.4%; in data set [2] (setting [10]) it was 25.2%; in data set [2] (setting [11]), 43.2%; in data set [2] (setting [12]), 51.4%.
As to `C[C@@]12CC[C@@H]3[C@H](OC(=O)[C@H]3CN3CCOCC3)[C@@H]3[C@]1(CC[C@@]3(C)O)C2` [compound 25], the Release rate in data set [1] (setting [3]) was 6.8%; in data set [1] (setting [4]), 14.1%; in data set [1] (setting [5]), 26.1%; in data set [1] (setting [6]) it was 42.8%; in data set [1] (setting [7]) it was 51.8%; in data set [2] (setting [8]), 6.8%. Besides, the Release rate was 14.1% in data set [2] (setting [9]), 25.7% in data set [2] (setting [10]), 43.8% in data set [2] (setting [11]) and 51.8% in data set [2] (setting [12]).
